Results reported in the supplement of paper PMC13207355.

Key:
Conditions in all cases: exposure time: 72 h
[1] = test system: E21 (patient-derived glioblastoma stem cells of mesenchymal subtype); assay: surviving fraction (nuclei count normalised to DMSO); higher = more cells surviving (less toxic)
[2] = test system: E28 (patient-derived glioblastoma stem cells of classical subtype); assay: as above
[3] = test system: E34 (patient-derived glioblastoma stem cells of proneural subtype); assay: as above
[4] = test system: FT3469 (normal neural stem cell line); assay: as above
[5] = test system: E13 (patient-derived glioblastoma stem cells of classical subtype); assay: as above
[6] = test system: E57 (patient-derived glioblastoma stem cells of mesenchymal subtype); assay: as above
[7] = test system: E31 (patient-derived glioblastoma stem cells of proneural subtype); assay: as above
[8] = test system: E21; assay: phenotypic distance (Euclidean, principal components) from DMSO controls (arbitrary units); higher = stronger morphological change
[9] = test system: E28; assay: as above
[10] = test system: E34; assay: as above
[11] = test system: FT3469; assay: as above
[12] = test system: E13; assay: as above
[13] = test system: E57; assay: as above
[14] = test system: E31; assay: as above
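For phenotypic distance (Euclidean, principal components) from DMSO controls in this document: cell Painting imaging in 384-well plates, CellProfiler features reduced to at least 20 principal components, Euclidean distance versus same-plate DMSO vehicle wells (0.1% v/v), median over six images per well.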
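For surviving fraction (nuclei count normalised to DMSO) in this document: nuclei counted by high-content imaging of Hoechst-stained cells in laminin-coated 384-well plates, relative to 0.1% DMSO vehicle wells, with staurosporine as cell-death control.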

Clc1ccc(COC(Cn2ccnc2)c2ccc(Cl)cc2Cl)cc1 (stereo unspecified) [Econazole nitrate]
Conditions | phenotypic distance | surviving fraction
[1], 4.1 nM | – | 1.11
[1], 12.3 nM | – | 0.967
[1], 37 nM | – | 0.99
[1], 111.1 nM | – | 1.03
[1], 333.3 nM | – | 1.01
[1], 1000 nM | – | 1.11
[1], 3000 nM | – | 1.18
[2], 4.1 nM | – | 1.06
[2], 12.3 nM | – | 1.03
[2], 37 nM | – | 1.06
[2], 111.1 nM | – | 0.943
[2], 333.3 nM | – | 1.12
[2], 1000 nM | – | 0.941
[2], 3000 nM | – | 0.965
[3], 4.1 nM | – | 0.983
[3], 12.3 nM | – | 1.08
[3], 37 nM | – | 1.01
[3], 111.1 nM | – | 1.17
[3], 333.3 nM | – | 1.03
[3], 1000 nM | – | 1.11
[3], 3000 nM | – | 0.957
[4], 4.1 nM | – | 0.824
[4], 12.3 nM | – | 0.949
[4], 37 nM | – | 1.04
[4], 111.1 nM | – | 1.03
[4], 333.3 nM | – | 0.854
[4], 1000 nM | – | 0.902
[4], 3000 nM | – | 0.864
[5], 4.1 nM | – | 0.964
[5], 12.3 nM | – | 1.05
[5], 37 nM | – | 0.999
[5], 111.1 nM | – | 1.11
[5], 333.3 nM | – | 1.08
[5], 1000 nM | – | 0.997
[5], 3000 nM | – | 0.967
[6], 4.1 nM | – | 1.02
[6], 12.3 nM | – | 1.04
[6], 37 nM | – | 1.07
[6], 111.1 nM | – | 1.06
[6], 333.3 nM | – | 1.09
[6], 1000 nM | – | 1.03
[6], 3000 nM | – | 1.05
[7], 4.1 nM | – | 1.03
[7], 12.3 nM | – | 0.985
[7], 37 nM | – | 0.969
[7], 111.1 nM | – | 0.924
[7], 333.3 nM | – | 1.08
[7], 1000 nM | – | 1.17
[7], 3000 nM | – | 1.14
[8], 4.1 nM | 0.651 | –
[8], 12.3 nM | 0.516 | –
[8], 37 nM | 0.785 | –
[8], 111.1 nM | 0.844 | –
[8], 333.3 nM | 0.917 | –
[8], 1000 nM | 0.797 | –
[8], 3000 nM | 1.31 | –
[9], 4.1 nM | 0.359 | –
[9], 12.3 nM | 0.539 | –
[9], 37 nM | 0.504 | –
[9], 111.1 nM | 0.446 | –
[9], 333.3 nM | 0.803 | –
[9], 1000 nM | 0.72 | –
[9], 3000 nM | 0.946 | –
[10], 4.1 nM | 0.901 | –
[10], 12.3 nM | 0.505 | –
[10], 37 nM | 0.479 | –
[10], 111.1 nM | 1.39 | –
[10], 333.3 nM | 0.912 | –
[10], 1000 nM | 1.29 | –
[10], 3000 nM | 1.17 | –
[11], 4.1 nM | 0.434 | –
[11], 12.3 nM | 0.211 | –
[11], 37 nM | 0.645 | –
[11], 111.1 nM | 0.741 | –
[11], 333.3 nM | 0.628 | –
[11], 1000 nM | 0.747 | –
[11], 3000 nM | 0.632 | –
[12], 4.1 nM | 0.86 | –
[12], 12.3 nM | 0.584 | –
[12], 37 nM | 0.567 | –
[12], 111.1 nM | 1.07 | –
[12], 333.3 nM | 1.37 | –
[12], 1000 nM | 0.962 | –
[12], 3000 nM | 1.16 | –
[13], 4.1 nM | 0.324 | –
[13], 12.3 nM | 0.67 | –
[13], 37 nM | 0.501 | –
[13], 111.1 nM | 0.756 | –
[13], 333.3 nM | 0.858 | –
[13], 1000 nM | 1.1 | –
[13], 3000 nM | 1.45 | –
[14], 4.1 nM | 0.819 | –
[14], 12.3 nM | 0.415 | –
[14], 37 nM | 0.765 | –
[14], 111.1 nM | 0.767 | –
[14], 333.3 nM | 0.871 | –
[14], 1000 nM | 1.4 | –
[14], 3000 nM | 1.39 | –

COc1nc(C)nc(Cl)c1NC1=NCCN1 [Moxonidine]
Conditions | phenotypic distance | surviving fraction
[1], 4.1 nM | – | 1.03
[1], 12.3 nM | – | 0.94
[1], 37 nM | – | 0.924
[1], 111.1 nM | – | 1.12
[1], 333.3 nM | – | 1.1
[1], 1000 nM | – | 1.06
[1], 3000 nM | – | 0.991
[2], 4.1 nM | – | 0.996
[2], 12.3 nM | – | 1.06
[2], 37 nM | – | 0.904
[2], 111.1 nM | – | 1.13
[2], 333.3 nM | – | 0.848
[2], 1000 nM | – | 1.05
[2], 3000 nM | – | 0.825
[3], 4.1 nM | – | 0.953
[3], 12.3 nM | – | 0.957
[3], 37 nM | – | 0.962
[3], 111.1 nM | – | 1.07
[3], 333.3 nM | – | 1.26
[3], 1000 nM | – | 0.981
[3], 3000 nM | – | 0.699
[4], 4.1 nM | – | 1.03
[4], 12.3 nM | – | 1.1
[4], 37 nM | – | 1.25
[4], 111.1 nM | – | 1.04
[4], 333.3 nM | – | 1.26
[4], 1000 nM | – | 1.18
[4], 3000 nM | – | 1.38
[5], 4.1 nM | – | 0.843
[5], 12.3 nM | – | 1.02
[5], 37 nM | – | 0.886
[5], 111.1 nM | – | 0.915
[5], 333.3 nM | – | 0.908
[5], 1000 nM | – | 0.948
[5], 3000 nM | – | 0.923
[6], 4.1 nM | – | 1.06
[6], 12.3 nM | – | 0.999
[6], 37 nM | – | 1.06
[6], 111.1 nM | – | 1.03
[6], 333.3 nM | – | 0.978
[6], 1000 nM | – | 0.975
[6], 3000 nM | – | 1.04
[7], 4.1 nM | – | 1
[7], 12.3 nM | – | 1.18
[7], 37 nM | – | 0.879
[7], 111.1 nM | – | 1.15
[7], 333.3 nM | – | 0.956
[7], 1000 nM | – | 1.21
[7], 3000 nM | – | 1.06
[8], 4.1 nM | 0.506 | –
[8], 12.3 nM | 0.442 | –
[8], 37 nM | 0.528 | –
[8], 111.1 nM | 1.03 | –
[8], 333.3 nM | 0.334 | –
[8], 1000 nM | 0.69 | –
[8], 3000 nM | 0.274 | –
[9], 4.1 nM | 0.486 | –
[9], 12.3 nM | 0.819 | –
[9], 37 nM | 0.764 | –
[9], 111.1 nM | 0.711 | –
[9], 333.3 nM | 0.733 | –
[9], 1000 nM | 0.573 | –
[9], 3000 nM | 0.781 | –
[10], 4.1 nM | 0.347 | –
[10], 12.3 nM | 0.861 | –
[10], 37 nM | 0.936 | –
[10], 111.1 nM | 0.523 | –
[10], 333.3 nM | 0.639 | –
[10], 1000 nM | 0.533 | –
[10], 3000 nM | 1.09 | –
[11], 4.1 nM | 0.479 | –
[11], 12.3 nM | 0.821 | –
[11], 37 nM | 0.541 | –
[11], 111.1 nM | 0.878 | –
[11], 333.3 nM | 0.406 | –
[11], 1000 nM | 0.742 | –
[11], 3000 nM | 0.873 | –
[12], 4.1 nM | 0.65 | –
[12], 12.3 nM | 0.585 | –
[12], 37 nM | 0.647 | –
[12], 111.1 nM | 0.433 | –
[12], 333.3 nM | 0.523 | –
[12], 1000 nM | 0.446 | –
[12], 3000 nM | 0.37 | –
[13], 4.1 nM | 0.464 | –
[13], 12.3 nM | 0.657 | –
[13], 37 nM | 0.543 | –
[13], 111.1 nM | 0.801 | –
[13], 333.3 nM | 0.46 | –
[13], 1000 nM | 0.757 | –
[13], 3000 nM | 0.505 | –
[14], 4.1 nM | 0.413 | –
[14], 12.3 nM | 0.823 | –
[14], 37 nM | 0.773 | –
[14], 111.1 nM | 0.902 | –
[14], 333.3 nM | 0.598 | –
[14], 1000 nM | 0.599 | –
[14], 3000 nM | 0.717 | –
